Source: EPA's ToxRefDB 2

Legend:
dog [1] = conditions: Chronic toxicity; beagle; Oral; Capsule; dose end: 12 month; group: systemic; systemic / in life observation / body weight / body weight gain + systemic / clinical chemistry / albumin / albumin + systemic / clinical …
rat [2] = conditions: Combined chronic toxicity/carcinogenicity, sprague dawley, Oral, Feed, dose end: 104 week, group: systemic
rat [3] = conditions: Prenatal developmental toxicity study, sprague dawley, Oral, Gavage/Intubation, dose end: 19 GD
rat [4] = conditions: Multigenerational reproductive toxicity study, sprague dawley, Oral, Feed, dose end: 2 generation
rabbit [5] = conditions: Prenatal developmental toxicity study, new zealand white, Oral, Gavage/Intubation, dose end: 19 GD
mouse [6] = conditions: Carcinogenicity, b6c3f1, Oral, Feed, dose end: 104 week, group: systemic
dog [7] = conditions: Chronic toxicity, beagle, Oral, Capsule, dose end: 28 day, group: systemic
mouse [8] = conditions: Carcinogenicity, cd1, Oral, Feed, dose end: 113 week, group: systemic
rabbit [9] = conditions: Prenatal developmental toxicity study, new zealand white, Oral, Gavage/Intubation, dose end: 18 GD
rabbit [10] = conditions: Prenatal developmental toxicity study, new zealand white, Oral, Gavage/Intubation, dose end: 28 GD
rat [11] = conditions: Chronic toxicity, fischer, Oral, Feed, dose end: 24 month, group: systemic
[12] = systemic / pathology microscopic / stomach / acanthosis + systemic / pathology microscopic / stomach / erosion + systemic / pathology …
[13] = systemic / pathology microscopic / testes / interstitial cell tumor nos + systemic / pathology microscopic / thyroid gland / adenoma/…
[14] = group: developmental, developmental / developmental malformation / bone / incomplete ossification + developmental / developmental malformation / bone / misaligned…
[15] = group: maternal, systemic / in life observation / body weight / body weight gain + systemic / in life observation / clinical signs / respiration (rales)
[16] = group: maternal, systemic / in life observation / body weight / body weight gain + systemic / in life observation / clinical signs / respiration (rales) + …
[17] = group: offspring, systemic / in life observation / body weight / offspring (pup) weight
[18] = group: parental, systemic / in life observation / body weight / body weight + systemic / in life observation / body weight / body weight gain + systemic / in…
[19] = group: reproductive, reproductive / reproductive performance / fertility / fertility
[20] = group: developmental, developmental / developmental malformation / bone / unossified
[21] = group: developmental, developmental / developmental malformation / bone / unossified + developmental / developmental malformation / bone / delayed ossification + …
[22] = group: maternal, systemic / in life observation / body weight / body weight gain + systemic / in life observation / food consumption / food consumption + …
[23] = systemic / pathology microscopic / stomach / hyperkeratosis + systemic / pathology microscopic / intestine small / carcinoma + systemic / …
[24] = systemic / pathology microscopic / stomach / hyperkeratosis + systemic / pathology microscopic / intestine small / hyperplasia + systemic / …
[25] = systemic / in life observation / clinical signs / emesis + systemic / organ weight / liver / absolute + systemic / organ weight / brain / …
[26] = systemic / hematology / hematocrit (hct) / hematocrit (hct) + systemic / in life observation / clinical signs / weakness + systemic / …
[27] = group: developmental, developmental / developmental malformation / bone / [other] + developmental / developmental malformation / bone / misshapen fontanel + …
[28] = group: maternal, reproductive / reproductive performance / aborted / aborted + reproductive / reproductive performance / resorptions / resorptions + systemic…
[29] = group: developmental, developmental / developmental malformation / bone / domed head + developmental / developmental malformation / bone / misshapen fontanel + …
[30] = group: maternal, systemic / in life observation / food consumption / food consumption
[31] = systemic / pathology microscopic / stomach / hyperkeratosis
[32] = systemic / pathology microscopic / stomach / hyperkeratosis + systemic / in life observation / body weight / body weight gain + systemic / …

O=C1c2ccccc2C(=O)N1SC(Cl)(Cl)Cl [Folpet]
LEL (dog [1]): 60 mg/kg/day
LOAEL (dog [1]): 60 mg/kg/day
NEL (dog [1]): 10 mg/kg/day
NOAEL (dog [1]): 10 mg/kg/day
LOAEL (rat [2]; [12]): 35 mg/kg/day
NOAEL (rat [2]; [12]): 9 mg/kg/day
LEL (rat [2]; [13]): 9 mg/kg/day
NEL (rat [2]; [13]): < 9 mg/kg/day
LEL (rat [3]; [14]): 360 mg/kg/day
LOAEL (rat [3]; [14]): 360 mg/kg/day
NEL (rat [3]; [14]): 60 mg/kg/day
NOAEL (rat [3]; [14]): 60 mg/kg/day
LEL (rat [3]; [15]): 60 mg/kg/day
LOAEL (rat [3]; [15]): 60 mg/kg/day
NEL (rat [3]; [16]): 10 mg/kg/day
NOAEL (rat [3]; [16]): 10 mg/kg/day
LEL (rat [4]; [17]): 180 mg/kg/day
LOAEL (rat [4]; [17]): 180 mg/kg/day
NEL (rat [4]; [17]): 40 mg/kg/day
NOAEL (rat [4]; [17]): 40 mg/kg/day
LOAEL (rat [4]; [18]): 180 mg/kg/day
NEL (rat [4]; [18]): 10 mg/kg/day
NOAEL (rat [4]; [18]): 40 mg/kg/day
LEL (rat [4]; group: parental, systemic / in life observation / food consumption / food consumption): 40 mg/kg/day
LEL (rat [4]; [19]): 180 mg/kg/day
LOAEL (rat [4]; [19]): 180 mg/kg/day
NEL (rat [4]; [19]): 40 mg/kg/day
NOAEL (rat [4]; [19]): 40 mg/kg/day
LEL (rabbit [5]; [20]): 40 mg/kg/day
LOAEL (rabbit [5]; [20]): 40 mg/kg/day
NEL (rabbit [5]; [21]): 10 mg/kg/day
NOAEL (rabbit [5]; [21]): 10 mg/kg/day
LOAEL (rabbit [5]; group: maternal, systemic / in life observation / body weight / body weight gain + systemic / in life observation / food consumption / food consumption): 160 mg/kg/day
LEL (rabbit [5]; [22]): 160 mg/kg/day
NEL (rabbit [5]; [22]): 40 mg/kg/day
NOAEL (rabbit [5]; [22]): 40 mg/kg/day
LOAEL (mouse [6]; [23]): 150 mg/kg/day
NOAEL (mouse [6]; [23]): < 150 mg/kg/day
LEL (mouse [6]; [24]): 150 mg/kg/day
NEL (mouse [6]; [24]): < 150 mg/kg/day
LOAEL (dog [7]; systemic / in life observation / body weight / body weight gain + systemic / in life observation / body weight / body weight): 60 mg/kg/day
NOAEL (dog [7]; systemic / in life observation / body weight / body weight gain + systemic / in life observation / body weight / body weight + systemic / in…): 20 mg/kg/day
LEL (dog [7]; [25]): 20 mg/kg/day
NEL (dog [7]; [25]): < 20 mg/kg/day
LEL (mouse [8]; [26]): 93 mg/kg/day
NEL (mouse [8]; [26]): < 93 mg/kg/day
LOAEL (mouse [8]; systemic / pathology microscopic / intestine small / hyperplasia): 1280 mg/kg/day
NOAEL (mouse [8]; systemic / pathology microscopic / intestine small / hyperplasia + systemic / pathology microscopic / intestine small / adenocarcinoma + …): 502 mg/kg/day
LEL (rabbit [9]; [27]): 60 mg/kg/day
LOAEL (rabbit [9]; [27]): > 60 mg/kg/day
NEL (rabbit [9]; [27]): < 60 mg/kg/day
NOAEL (rabbit [9]; [27]): ≥ 60 mg/kg/day
LEL (rabbit [9]; [28]): 60 mg/kg/day
LOAEL (rabbit [9]; [28]): > 60 mg/kg/day
NEL (rabbit [9]; [28]): < 60 mg/kg/day
NOAEL (rabbit [9]; [28]): ≥ 60 mg/kg/day
LEL (rabbit [10]; [29]): 20 mg/kg/day
LOAEL (rabbit [10]; [29]): 20 mg/kg/day
NEL (rabbit [10]; [29]): 10 mg/kg/day
NOAEL (rabbit [10]; [29]): 10 mg/kg/day
LEL (rabbit [10]; [30]): 20 mg/kg/day
LOAEL (rabbit [10]; [30]): 20 mg/kg/day
NEL (rabbit [10]; [30]): 10 mg/kg/day
NOAEL (rabbit [10]; [30]): 10 mg/kg/day
LEL (rat [11]; [31]): 81 mg/kg/day
LOAEL (rat [11]; [31]): 81 mg/kg/day
NEL (rat [11]; [32]): 12 mg/kg/day
NOAEL (rat [11]; [32]): 12 mg/kg/day
